Results from PubChem BioAssay (NCI).
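A five-concentration, 48-hour dose response in 96-well plates underlies each endpoint, interpolated linearly between surrounding concentrations. At the TGI there is no net growth.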

How the values were obtained:
Assay in all cases: NCI anticancer screen, dose series, 48 h
A549 NSCLC = test system: A549 NSCLC
CAKI-1 renal = test system: CAKI-1 renal
COLO 205 colon = test system: COLO 205 colon
HCC-2998 colon = test system: HCC-2998 colon
HCT-116 colon = test system: HCT-116 colon
HCT-15 colon = test system: HCT-15 colon
HOP-62 NSCLC = test system: HOP-62 NSCLC
HT29 colon = test system: HT29 colon
MALME-3M melanoma = test system: MALME-3M melanoma
MCF7 breast = test system: MCF7 breast
NCI-H460 lung = test system: NCI-H460 lung
OVCAR-5 ovarian = test system: OVCAR-5 ovarian
SK-OV-3 ovarian = test system: SK-OV-3 ovarian
SNB-75 CNS = test system: SNB-75 CNS
T-47D breast = test system: T-47D breast
UACC-257 melanoma = test system: UACC-257 melanoma
UACC-62 melanoma = test system: UACC-62 melanoma
UO-31 renal = test system: UO-31 renal
RXF 393 renal = test system: RXF 393 renal

Structure (SMILES) | TGI (A549 NSCLC) [µM] | TGI (CAKI-1 renal) [µM] | TGI (COLO 205 colon) [µM] | TGI (HCC-2998 colon) [µM] | TGI (HCT-116 colon) [µM] | TGI (HCT-15 colon) [µM] | TGI (HOP-62 NSCLC) [µM] | TGI (HT29 colon) [µM] | TGI (MALME-3M melanoma) [µM] | TGI (MCF7 breast) [µM] | TGI (NCI-H460 lung) [µM] | TGI (OVCAR-5 ovarian) [µM] | TGI (SK-OV-3 ovarian) [µM] | TGI (SNB-75 CNS) [µM] | TGI (T-47D breast) [µM] | TGI (UACC-257 melanoma) [µM] | TGI (UACC-62 melanoma) [µM] | TGI (UO-31 renal) [µM] | TGI (RXF 393 renal) [µM]
CC1(C)CC(=O)/C(=C/C2CCNC2=S)C(=O)N1 (stereo unspecified) | > 100 | > 100 | > 100 | > 100 | > 100 | > 100 | > 100 | > 100 | > 100 | > 100 | > 100 | > 100 | > 100 | > 100 | > 100 | > 100 | > 100 | > 100 | –
COc1ccc(OC)c([N+](=O)[O-])c1-c1nc2sccn2c1/C=N/N=C(N)N | > 100 | > 100 | > 100 | 79.4 | > 100 | > 100 | > 100 | > 100 | > 100 | 54.2 | > 100 | > 100 | > 100 | – | > 100 | > 100 | > 100 | > 100 | > 100
Nc1ccc(-c2ncc3cc(-c4cccc(-c5cc6cnc(-c7ccc(N)cc7)nc6c6ccccc56)c4)c4ccccc4c3n2)cc1 | > 100 | > 100 | > 100 | > 100 | > 100 | > 100 | > 100 | > 100 | – | > 100 | > 100 | > 100 | > 100 | > 100 | > 100 | > 100 | > 100 | > 100 | > 100
O=C(O)c1nc2cc(C(F)(F)F)ccc2nc1Nc1ccc(Cl)c(Cl)c1 | 21.8 | 80.3 | 30.2 | – | 21.1 | 24.8 | 27.6 | 28.8 | 38.7 | 90.1 | 26.3 | 32 | 30.7 | 53.3 | 36.8 | 64.5 | 25 | 27.6 | 37.5
COC(=O)CCC1(C)C2CCC1(C)/C(=N/O)C2 (stereo unspecified) | > 100 | > 100 | > 100 | > 100 | > 100 | > 100 | > 100 | > 100 | > 100 | > 100 | – | > 100 | > 100 | > 100 | > 100 | > 100 | > 100 | > 100 | > 100
C=C1CC(Cn2ccc(=O)[nH]c2=O)(c2ccc(-c3ccccc3)cc2)OC1=O (stereo unspecified) | 24.9 | 2.7 | 0.338 | 4.12 | 0.892 | 3.72 | 40.2 | 3.27 | 3.42 | 2.67 | 28.4 | 24.7 | 21.1 | 26.7 | 6.45 | 3.88 | 1.88 | 16.5 | –
O=C1CSC(/C=C/c2ccccc2)N1c1ccc(-c2ccc(-n3c(-c4ccccc4)nc4ccccc4c3=O)cc2)cc1 (stereo unspecified) | 68 | 88.7 | 36.6 | > 100 | – | 66.8 | 99.2 | 34 | 64.4 | 95.9 | > 100 | 41.6 | > 100 | 8.52 | > 100 | 93.1 | > 100 | 50.6 | –
CN1CCC(CNC(=O)CCCCCCCCC(=O)NCC2(c3ccccc3)CCN(C)CC2)(c2ccccc2)CC1 | > 100 | – | > 100 | > 100 | > 100 | > 100 | > 100 | > 100 | > 100 | > 100 | > 100 | > 100 | > 100 | > 100 | > 100 | > 100 | > 100 | > 100 | > 100
COC(=O)c1ccc(Oc2nc3ccccc3nc2-c2cccs2)cc1 | 76.9 | > 100 | > 100 | – | > 100 | > 100 | 24.9 | > 100 | > 100 | > 100 | > 100 | > 100 | > 100 | 26 | > 100 | > 100 | > 100 | > 100 | > 100
CSc1c(C#N)c(O)n(-c2ccc(C)cc2)c(=O)c1C#N | > 100 | > 100 | > 100 | > 100 | > 100 | > 100 | – | > 100 | > 100 | > 100 | > 100 | > 100 | > 100 | > 100 | > 100 | > 100 | > 100 | > 100 | > 100
CC1=C(C(=O)N[C@@H](Cc2ccccc2)C(=O)O)N2C(=O)[C@@H](NC(=O)[C@@H](N)CC(C)C)[C@H]2SC1 | > 100 | > 100 | > 100 | > 100 | – | > 100 | – | – | > 100 | > 100 | > 100 | > 100 | – | > 100 | > 100 | > 100 | > 100 | – | > 100
CCCCC1Cc2ccccc2-c2n1c1ccccc1[n+]2C (stereo unspecified) | – | > 100 | – | 48.3 | > 100 | > 100 | > 100 | 57.8 | – | > 100 | > 100 | > 100 | > 100 | – | 7.3 | 25.2 | – | > 100 | > 100
O=c1[nH]c(=O)n(C2CC(O)C(CO)O2)cc1NN=NCCc1ccccc1 (stereo unspecified) | > 100 | > 100 | > 100 | – | > 100 | > 100 | > 100 | > 100 | > 100 | > 100 | > 100 | > 100 | > 100 | > 100 | > 100 | > 100 | > 100 | > 100 | > 100
CCOc1cc(-c2nc3ccccn3c2/N=C/c2cc([N+](=O)[O-])cc([N+](=O)[O-])c2O)ccc1O | > 100 | > 100 | > 100 | – | > 100 | > 100 | > 100 | > 100 | > 100 | > 100 | > 100 | > 100 | > 100 | > 100 | > 100 | > 100 | > 100 | > 100 | > 100
Oc1ccc(Cl)cc1-c1[nH]c(=S)nc(-c2ccccc2)c1Cl | > 100 | > 100 | > 100 | – | > 100 | > 100 | > 84.9 | > 31.6 | > 100 | > 100 | > 100 | > 100 | > 100 | 70.1 | > 100 | > 100 | – | > 100 | > 100
CNC(=O)CCNC(=O)CCC(=O)N(C)C | > 100 | > 100 | > 100 | > 100 | > 100 | > 100 | > 100 | > 100 | > 100 | > 100 | > 100 | > 100 | > 100 | – | > 100 | – | > 100 | > 100 | > 100
Nc1nc(N)c(C2=CCN(Cc3ccccc3)CC2)c(=O)[nH]1 | > 100 | > 100 | > 100 | – | > 100 | > 100 | > 100 | > 100 | > 100 | > 100 | > 100 | > 100 | > 100 | > 100 | > 100 | > 100 | > 100 | > 100 | > 100
CCOC(=O)[C@@H]1C[C@H]1c1ccc(O)c(O)c1 | > 100 | > 100 | > 100 | 91.9 | 28.6 | > 100 | > 100 | > 100 | > 100 | > 100 | > 100 | > 100 | > 100 | – | 88.1 | > 100 | 34.9 | > 100 | 87.4
COC1(C(C)(C)C)C=C(C(C)(C)C)P(=O)(O)O1 (stereo unspecified) | > 100 | > 100 | > 100 | > 100 | > 100 | > 100 | > 100 | > 100 | > 100 | > 100 | > 100 | > 100 | > 100 | > 100 | > 100 | > 100 | > 100 | – | –
C[C@@]12c3c4ccc(C=O)c3Oc3ccc(C=O)c(c31)Oc1c(C=O)ccc(c12)O4 | > 100 | – | > 100 | > 100 | > 100 | > 100 | > 100 | > 100 | > 100 | > 100 | > 100 | > 100 | > 100 | > 100 | > 100 | > 100 | > 100 | > 100 | –
Cc1c(/C=N/NC(=S)Nc2cccc(Cl)c2)c(=O)n(-c2ccccc2)n1C | – | 25.7 | > 100 | > 100 | > 100 | > 100 | 26.9 | > 100 | – | 62.5 | 21.8 | – | 38.2 | 28.3 | > 100 | > 100 | > 100 | 88.7 | 29.5
COc1ccc(C2=C(Cl)c3cc(OC)c(OC)cc3C2=O)cc1OC | > 100 | 4.24 | 16.2 | 38.9 | 15.2 | 20.7 | 30.4 | > 100 | 26 | 27.9 | – | 33.9 | 36.9 | > 100 | 10.9 | 15.5 | 29.6 | 30.2 | 18
NC(=O)C(c1ccccc1)N1OC2C(=O)N(Cc3ccccc3)C(=O)C2C1c1cccc(Oc2ccc(Cl)cc2)c1 (stereo unspecified) | > 100 | 31.9 | 32 | – | 44.5 | > 100 | > 100 | 35.6 | > 100 | 69.4 | 90.1 | > 100 | > 100 | > 100 | > 100 | > 100 | 32.3 | 7.88 | 53
COc1cc(C2S/C(=C/c3ccccc3)C(=O)N2c2cc(Cl)ccc2Cl)cc(OC)c1OC (stereo unspecified) | > 100 | > 100 | > 100 | > 100 | 28.1 | > 100 | > 100 | > 100 | > 100 | > 100 | > 100 | – | > 100 | – | > 100 | > 100 | > 100 | > 100 | > 100
O=S(=O)(C(=Ic1ccccc1)S(=O)(=O)C(F)(F)C(F)(F)C(F)(F)C(F)(F)F)C(F)(F)C(F)(F)C(F)(F)C(F)(F)F | 34.3 | 25.9 | 21.8 | 40.4 | – | 33.7 | 30.7 | 31.4 | 26.1 | 18.1 | 32.2 | 30.9 | 30.4 | 28.5 | 32.5 | 32.8 | 33.4 | 25.8 | –
[N-]=[N+]=Nc1ccc(NCCCCCC(=O)ON2C(=O)CCC2=O)c([N+](=O)[O-])c1 | > 100 | > 100 | > 100 | – | > 100 | > 100 | > 100 | > 100 | > 100 | > 100 | > 100 | > 100 | > 100 | > 100 | > 100 | > 100 | > 100 | > 100 | > 100
